Assay results reported in article PMC9305623, “Next generation GLP-1/GIP/glucagon triple agonists normalize body weight in obese mice” (Molecular Metabolism, 2022).
pEC50: −log10 of the molar value. *1 amine or outer side, *2 acyl side, *3 side chain or, on linkers, in order; H or OH if unused. Where a SMILES comes first, the peptide text is derived from it. Side-chain parts run from the residue outwards. [ ]: non-standard residue; d: D form. The star is where a group is joined. C20 diacid = O=C(O)CCCCCCCCCCCCCCCCCCC(=O)*; γGlu = O=C(O)[C@H](CCC(=O)[*:2])N[*:1]; εLys = N[C@@H](CCCCN[*:1])C(=O)[*:2]; AEEA = NCCOCCOCC(=O)O; Aib = CC(C)(N)C(=O)O

Tests used:
Test in all cases: Receptor activation: cAMP production by CRE-luciferase reporter in stably transfected BHK cells
Format in all cases: cell-based
[1] = target: T1, hGcg Receptor (Homo sapiens, UniProt P47871); details: for hGcg Receptor Relative Potency %: compared to the native ligand for the receptor
T1 construct: expressed in transfected cells; host or cells: baby hamster kidney (BHK) cells, stably transfected, with CRE-firefly luciferase reporter
Experimental: (§1) Cyclic AMP (cAMP) production was assessed as a proxy for receptor activation using stably transfected baby hamster kidney (BHK) cell lines expressing the DNA for one individual receptor (GLP-1R, GIPR, GcgR; human- or mouse-specific sequence) and the DNA for the firefly luciferase reporter gene linked to the cAMP response element (CRE). The cells were kept in continuous culture at 37 °C and 5% CO2 in Dulbecco's Modified Eagle Medium (DMEM) supplemented with 10% heat-inactivated fetal bovine serum (HI-FBS), 300 μg/mL hygromycin, and 500 μg/mL G418; for cell lines expressing GIPR, the G418 concentration was lowered to 400 μg/mL. Cells were plated in a 96-well poly-D-lysine-coated plate at 5,000 cells per well in growth media and incubated overnight at 37 °C with 5% CO2. After the overnight incubation, the media was removed, the plate was washed once in Dulbecco's phosphase-buffered saline (DPBS), and 50 μL of assay buffer (DMEM without phenol red, 10 mM HEPES, 1x Glutamax, 1% ovalbumin, 0.1% Pluronic F-68) was added to each well. […] Aliquots of the dilution curves were added to the cell plate in a volume of 50 μL per well resulting in final assay concentrations ranging from 1 × 10^−14 to 1 × 10^−7 M. The assay plate was incubated for 3 h at 37 °C and 5% CO2. After the incubation, the assay plate was washed once with DPBS. A 100 μL aliquot of DPBS was added to each well followed by 100 μL of steadylite plus reagent (PerkinElmer). The assay plate was covered to protect reagent from light, shaken at 250 rpm at room temperature for 30 min, and read in a microtiter plate reader. EC50 values were calculated using Prism software (GraphPad) with the nonlinear regression log(agonist) vs. response. A minimum of two replicates were measured for each sample.

[2] = target: T2, hGLP-1 Receptor (Homo sapiens, UniProt P43220); details: for hGLP-1 Receptor Relative Potency %: compared to the native ligand for the receptor
T2 construct: expressed in transfected cells; host or cells: baby hamster kidney (BHK) cells, stably transfected, with CRE-firefly luciferase reporter
Experimental: as §1

[3] = target: T3, hGIP Receptor (Homo sapiens, UniProt P48546); details: for hGIP Receptor Relative Potency %: compared to the native ligand for the receptor
T3 construct: expressed in transfected cells; host or cells: baby hamster kidney (BHK) cells, stably transfected, with CRE-firefly luciferase reporter
T3 sequence (P48546 22-466): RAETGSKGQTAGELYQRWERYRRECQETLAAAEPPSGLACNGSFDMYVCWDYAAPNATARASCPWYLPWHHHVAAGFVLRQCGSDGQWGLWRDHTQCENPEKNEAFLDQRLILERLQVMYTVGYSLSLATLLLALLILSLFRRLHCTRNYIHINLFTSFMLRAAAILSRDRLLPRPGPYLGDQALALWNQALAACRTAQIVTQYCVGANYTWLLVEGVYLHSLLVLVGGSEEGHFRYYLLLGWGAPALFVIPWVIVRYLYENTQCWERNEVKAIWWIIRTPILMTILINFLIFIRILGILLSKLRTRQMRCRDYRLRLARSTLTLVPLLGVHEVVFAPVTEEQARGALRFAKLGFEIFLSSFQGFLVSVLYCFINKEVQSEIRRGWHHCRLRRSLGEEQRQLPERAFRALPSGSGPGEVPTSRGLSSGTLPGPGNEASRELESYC
Experimental: as §1

T1 sequence (P47871 26-477): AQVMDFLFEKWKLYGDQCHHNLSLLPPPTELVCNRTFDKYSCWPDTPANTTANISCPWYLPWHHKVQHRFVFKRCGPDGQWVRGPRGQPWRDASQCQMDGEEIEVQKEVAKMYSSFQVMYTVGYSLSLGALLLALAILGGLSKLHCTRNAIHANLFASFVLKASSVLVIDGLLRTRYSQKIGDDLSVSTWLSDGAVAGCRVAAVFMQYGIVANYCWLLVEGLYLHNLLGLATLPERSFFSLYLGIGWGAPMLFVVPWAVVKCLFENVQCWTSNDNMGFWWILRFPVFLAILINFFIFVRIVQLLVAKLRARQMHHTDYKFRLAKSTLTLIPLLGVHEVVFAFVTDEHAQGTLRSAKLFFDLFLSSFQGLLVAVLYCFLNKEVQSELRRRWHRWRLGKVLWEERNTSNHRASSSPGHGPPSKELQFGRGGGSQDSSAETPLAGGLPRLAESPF
T2 sequence (P43220 24-463): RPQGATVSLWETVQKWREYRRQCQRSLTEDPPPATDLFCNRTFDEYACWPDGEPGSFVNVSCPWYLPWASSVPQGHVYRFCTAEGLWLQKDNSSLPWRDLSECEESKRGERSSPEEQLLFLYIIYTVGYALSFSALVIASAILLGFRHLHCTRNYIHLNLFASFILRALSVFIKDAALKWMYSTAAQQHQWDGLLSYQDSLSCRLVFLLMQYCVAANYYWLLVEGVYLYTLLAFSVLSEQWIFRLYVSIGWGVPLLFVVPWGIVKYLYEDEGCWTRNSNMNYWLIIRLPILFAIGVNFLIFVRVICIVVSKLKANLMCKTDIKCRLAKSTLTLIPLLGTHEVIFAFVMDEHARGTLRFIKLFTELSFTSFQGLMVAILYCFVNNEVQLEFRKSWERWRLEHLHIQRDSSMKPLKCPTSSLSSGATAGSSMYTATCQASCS

| Structure (SMILES) | hGcg Receptor Relative Potency % [1] | hGLP-1 Receptor Relative Potency % [2] | hGIP Receptor Relative Potency % [3] | pEC50 ([1]; BHK cells expressing human GcgR and CRE-luciferase, 12-point curve, 3 h, 37 °C, assay buffer with 1% ovalbumin, minimum of two replicates) | pEC50 ([2]; BHK cells expressing human GLP-1R and CRE-luciferase, 12-point curve, 3 h, 37 °C, assay buffer with 1% ovalbumin, minimum of two replicates) | pEC50 ([3]; BHK cells expressing human GIPR and CRE-luciferase, 12-point curve, 3 h, 37 °C, assay buffer with 1% ovalbumin, minimum of two replicates) |
| --- | --- | --- | --- | --- | --- | --- |
| CC[C@H](C)[C@H](NC(=O)[C@H](CO)NC(=O)[C@H](Cc1ccc(O)cc1)NC(=O)[C@H](CC(=O)O)NC(=O)[C@H](CO)NC(=O)[C@@H](NC(=O)[C@H](Cc1ccccc1)NC(=O)[C@@H](NC(=O)CNC(=O)[C@H](Cc1c[nH]cn1)NC(=O)C(C)(C)NC(=O)[C@@H](N)Cc1c[nH]cn1)[C@@H](C)O)[C@@H](C)O)C(=O)N[C@@H](Cc1ccc(O)cc1)C(=O)N[C@@H](CC(C)C)C(=O)N[C@@H](CCC(=O)O)C(=O)N[C@@H](CCCCNC(=O)[C@@H](N)CCCCNC(=O)[C@@H](N)CCCCNC(=O)CC[C@H](NC(=O)CCCCCCCCCCCCCCCCCCC(=O)O)C(=O)O)C(=O)N[C@@H](CCC(N)=O)C(=O)N[C@@H](Cc1ccc(O)cc1)C(=O)N[C@@H](C)C(=O)NC(C)(C)C(=O)N[C@@H](CCC(=O)O)C(=O)N[C@@H](Cc1ccccc1)C(=O)N[C@H](C(=O)N[C@@H](CCC(N)=O)C(=O)N[C@@H](Cc1c[nH]c2ccccc12)C(=O)N[C@@H](CC(C)C)C(=O)N[C@@H](CC(C)C)C(=O)N[C@@H](CCC(=O)O)C(=O)NCC(=O)NCC(=O)N1CCC[C@H]1C(=O)N[C@@H](CO)C(=O)N[C@@H](CO)C(=O)NCC(=O)N[C@@H](C)C(=O)N1CCC[C@H]1C(=O)N1CCC[C@H]1C(=O)N1CCC[C@H]1C(=O)N[C@@H](CO)C(N)=O)C(C)C [Compound 15] (H-H[Aib]HGTFTSDYSIYLEK([εLys-εLys-γGlu-C20 diacid])QYA[Aib]EFVQWLLEGGPSSGAPPPS-NH2) | 72% | 101% | 135% | – | – | – |
| CC[C@H](C)[C@H](NC(=O)[C@H](CO)NC(=O)[C@H](Cc1ccc(O)cc1)NC(=O)[C@H](CC(=O)O)NC(=O)[C@H](CO)NC(=O)[C@@H](NC(=O)[C@H](Cc1ccccc1)NC(=O)[C@@H](NC(=O)CNC(=O)[C@H](CCC(N)=O)NC(=O)C(C)(C)NC(=O)[C@@H](N)Cc1ccc(O)cc1)[C@@H](C)O)[C@@H](C)O)C(=O)N[C@@H](Cc1ccc(O)cc1)C(=O)N[C@@H](CC(C)C)C(=O)N[C@@H](CC(=O)O)C(=O)N[C@@H](CCCCN)C(=O)N[C@@H](CCC(N)=O)C(=O)N[C@@H](C)C(=O)N[C@@H](C)C(=O)NC(C)(C)C(=O)N[C@@H](CCC(=O)O)C(=O)N[C@@H](Cc1ccccc1)C(=O)N[C@H](C(=O)N[C@@H](CC(N)=O)C(=O)N[C@@H](Cc1c[nH]c2ccccc12)C(=O)N[C@@H](CC(C)C)C(=O)N[C@@H](CC(C)C)C(=O)N[C@@H](C)C(=O)NCC(=O)NCC(=O)N1CCC[C@H]1C(=O)N[C@@H](CO)C(=O)N[C@@H](CO)C(=O)NCC(=O)N[C@@H](C)C(=O)N1CCC[C@H]1C(=O)N1CCC[C@H]1C(=O)N1CCC[C@H]1C(=O)N[C@@H](CO)C(=O)N[C@@H](CCCCNC(=O)COCCOCCNC(=O)COCCOCCNC(=O)CC[C@H](NC(=O)CCCCCCCCCCCCCCCCC(=O)O)C(=O)O)C(N)=O)C(C)C [Compound 6] | 1% | 59% | 23% | – | – | – |
| CC[C@H](C)[C@H](NC(=O)[C@H](CO)NC(=O)[C@H](Cc1ccc(O)cc1)NC(=O)[C@H](CC(=O)O)NC(=O)[C@H](CO)NC(=O)[C@@H](NC(=O)[C@H](Cc1ccccc1)NC(=O)[C@@H](NC(=O)CNC(=O)[C@H](CCC(N)=O)NC(=O)C(C)(C)NC(=O)[C@@H](N)Cc1ccc(O)cc1)[C@@H](C)O)[C@@H](C)O)C(=O)N[C@@H](Cc1ccc(O)cc1)C(=O)N[C@@H](CC(C)C)C(=O)N[C@@H](CCC(=O)O)C(=O)N[C@@H](CCCCNC(=O)COCCOCCNC(=O)COCCOCCNC(=O)CC[C@H](NC(=O)CCCCCCCCCCCCCCCCCCC(=O)O)C(=O)O)C(=O)N[C@@H](CCC(N)=O)C(=O)N[C@@H](C)C(=O)N[C@@H](C)C(=O)NC(C)(C)C(=O)N[C@@H](CCC(=O)O)C(=O)N[C@@H](Cc1ccccc1)C(=O)N[C@H](C(=O)N[C@@H](CCC(N)=O)C(=O)N[C@@H](Cc1c[nH]c2ccccc12)C(=O)N[C@@H](CC(C)C)C(=O)N[C@@H](CC(C)C)C(=O)N[C@@H](CCC(=O)O)C(=O)NCC(=O)NCC(=O)N1CCC[C@H]1C(=O)N[C@@H](CO)C(=O)N[C@@H](CO)C(=O)NCC(=O)N[C@@H](C)C(=O)N1CCC[C@H]1C(=O)N1CCC[C@H]1C(=O)N1CCC[C@H]1C(=O)N[C@@H](CO)C(N)=O)C(C)C [Compound 9] (H-Y[Aib]QGTFTSDYSIYLEK([AEEA-AEEA-γGlu-C20 diacid])QAA[Aib]EFVQWLLEGGPSSGAPPPS-NH2) | 5% | 220% | 92% | 9.73 | 11.51 | 10.94 |
| CC[C@H](C)[C@H](NC(=O)[C@H](CO)NC(=O)[C@H](Cc1ccc(O)cc1)NC(=O)[C@H](CC(=O)O)NC(=O)[C@H](CO)NC(=O)[C@@H](NC(=O)[C@H](Cc1ccccc1)NC(=O)[C@@H](NC(=O)CNC(=O)[C@H](Cc1c[nH]cn1)NC(=O)C(C)(C)NC(=O)[C@@H](N)Cc1c[nH]cn1)[C@@H](C)O)[C@@H](C)O)C(=O)N[C@@H](Cc1ccc(O)cc1)C(=O)N[C@@H](CC(C)C)C(=O)N[C@@H](CCC(=O)O)C(=O)N[C@@H](CCCCNC(=O)[C@@H](N)CCCCNC(=O)[C@@H](N)CCCCNC(=O)CC[C@H](NC(=O)CCCCCCCCCCCCCCCCCCC(=O)O)C(=O)O)C(=O)N[C@@H](CCCCN)C(=O)N[C@@H](C)C(=O)N[C@@H](C)C(=O)NC(C)(C)C(=O)N[C@@H](CCC(=O)O)C(=O)N[C@@H](Cc1ccccc1)C(=O)N[C@H](C(=O)N[C@@H](CCC(N)=O)C(=O)N[C@@H](Cc1c[nH]c2ccccc12)C(=O)N[C@@H](CC(C)C)C(=O)N[C@@H](CC(C)C)C(=O)N[C@@H](CCC(=O)O)C(=O)NCC(=O)NCC(=O)N1CCC[C@H]1C(=O)N[C@@H](CO)C(=O)N[C@@H](CO)C(=O)NCC(=O)N[C@@H](C)C(=O)N1CCC[C@H]1C(=O)N1CCC[C@H]1C(=O)N1CCC[C@H]1C(=O)N[C@@H](CO)C(N)=O)C(C)C [Compound 14] (H-H[Aib]HGTFTSDYSIYLEK([εLys-εLys-γGlu-C20 diacid])KAA[Aib]EFVQWLLEGGPSSGAPPPS-NH2) | 69% | 211% | 142% | – | – | – |
| CC[C@H](C)[C@H](NC(=O)[C@H](CO)NC(=O)[C@H](Cc1ccc(O)cc1)NC(=O)[C@H](CC(=O)O)NC(=O)[C@H](CO)NC(=O)[C@@H](NC(=O)[C@H](Cc1ccccc1)NC(=O)[C@@H](NC(=O)CNC(=O)[C@H](Cc1c[nH]cn1)NC(=O)C(C)(C)NC(=O)[C@@H](N)Cc1ccc(O)cc1)[C@@H](C)O)[C@@H](C)O)C(=O)N[C@@H](Cc1ccc(O)cc1)C(=O)N[C@@H](CC(C)C)C(=O)N[C@@H](CCC(=O)O)C(=O)N[C@@H](CCCCNC(=O)[C@@H](N)CCCCNC(=O)[C@@H](N)CCCCNC(=O)CC[C@H](NC(=O)CCCCCCCCCCCCCCCCCCC(=O)O)C(=O)O)C(=O)N[C@@H](CCC(N)=O)C(=O)N[C@@H](C)C(=O)N[C@@H](C)C(=O)NC(C)(C)C(=O)N[C@@H](CCC(=O)O)C(=O)N[C@@H](Cc1ccccc1)C(=O)N[C@H](C(=O)N[C@@H](CCC(N)=O)C(=O)N[C@@H](Cc1c[nH]c2ccccc12)C(=O)N[C@@H](CC(C)C)C(=O)N[C@@H](CC(C)C)C(=O)N[C@@H](CCC(=O)O)C(=O)NCC(=O)NCC(=O)N1CCC[C@H]1C(=O)N[C@@H](CO)C(=O)N[C@@H](CO)C(=O)NCC(=O)N[C@@H](C)C(=O)N1CCC[C@H]1C(=O)N1CCC[C@H]1C(=O)N1CCC[C@H]1C(=O)N[C@@H](CO)C(N)=O)C(C)C [Compound 11] (H-Y[Aib]HGTFTSDYSIYLEK([εLys-εLys-γGlu-C20 diacid])QAA[Aib]EFVQWLLEGGPSSGAPPPS-NH2) | 13% | 7% | 147% | – | – | – |
